Assay results as given in patent publication US20130303788A1, “METHOD OF PRODUCING BIPHENOLIC COMPOUND, NOVEL BIPHENYL COMPOUND AND SYNTHESIS METHOD THEREOF, AND PHARMACEUTICAL COMPOSITION FOR TREATING PARKINSON'S DISEASE” (Tzu Chi University, priority 2012, published 2013).

Assays:
[1] = tested on: SH-SY5Y human neuroblastoma cells; assay: Effects on oxidative stress (TBHP or CHP), MTT assay; type: cell-based; conditions: for prevention of cell death (relative cell viability) after exposure to CHP / prevention of cell death (relative cell viability) after exposure to TBHP: 10 μM for 30 minutes, vs pathological control, FIG. 9; for prevention of cell death (relative cell viability) after exposure to CHP: then CHP 300 μM for 3 hours; for prevention of cell death (relative cell viability) after exposure to TBHP: then TBHP 300 μM for 3 hours
Procedure: (§1) 3-(4,5-Dimethylthiazol-2-yl)-2,5-diphenyltetrazolium bromide (MTT) assay was conducted generally as follows. A MTT solution was added to culture of the cells in the respective well so that a MTT concentration of 0.5 mg/mL was reached, followed by cultivation for 4 hours. The liquid in the respective well was removed, and dimethylsulfoxide (DMSO) was added into the respective well to dissolve formazan dye. Absorbance of the mixture in the respective well at 570 nm (OD570) was measured using an OPTImax microplate reader (Molecular Devices).
The SH-SY5Y human neuroblastoma cells were respectively treated with products 1, 2, 3, 4, 5, 7, and 3,3′-diallyl-biphenyl-4,4′-diol (compound 55) (10 μM) for 30 minutes. 3,3′-diallyl-biphenyl-4,4′-diol (compound 55) was prepared from commercially available 4,4′-biphenol (compound 54) generally according to the method as described in Ablard, F. et al., Bioorg. Med. Chem. Lett. 2007, 17, 4428. Subsequently, the SH-SY5Y human neuroblastoma cells were exposed to cumene hydroperoxide (CHP) or tert-butyl hydroperoxide (TBHP) (300 μM, Riedel-de Haen) for 3 hours after the treatment with the respective biphenolic compound of formula (I).
(§2) Cell viability was evaluated as follows. The SH-SY5Y human neuroblastoma cells were subjected to the MTT assay as described in section 1 of General Procedures. The relative cell viability (%) was calculated by substituting the absorbance into the following formula:
(§3) where D=relative cell viability • E=OD570 of the pathological control, or the SH-SY5Y human neuroblastoma cells treated with the respective biphenolic compound of formula (I) • F=OD570 of the normal control The obtained data were subjected to the statistical analysis as described in section 5 of General Procedures.

[2] = tested on: SH-SY5Y human neuroblastoma cells; assay: Effects on MPP+ neurotoxicity, MTT assay; type: cell-based; conditions: 10 μM or 30 μM; MPP+ 1 mM for 24 hours; FIG. 10
Procedure: as §1
SH-SY5Y human neuroblastoma cells were exposed to neurotoxic 1-methyl-4-phenylpyridinium (MPP^+) (1 mM) for 24 hours, while the same were treated with the respective one of products 1, 2, 3, 4, 5, 7, and 3,3′-diallyl-biphenyl-4,4′-diol (compound 55) (10 μM or 30 μM).
as §2
as §3, with “G=relative” for “D=relative”, “H=OD570” for “E=OD570”, “I=OD570” for “F=OD570”

[3] = tested on: mouse model of PD (6-OHDA unilateral striatal lesion); assay: Apomorphine-induced rotation test in 6-OHDA mouse model of PD; type: in vivo, NMRI mice
Procedure: The respective NMRI mouse was anesthetized with ketamine ([…], intraperitoneally). Subsequently, the respective NMRI mouse was placed into a stereotactic frame with nose and ear bars specially designed for mice. 6-hydroxydopamine (6-OHDA) was injected with saline containing 0.02% ascorbic acid (as a vehicle) into the right striatum of the respective NMRI mouse so that unilateral striatal lesion was induced (i.e., damage to dopaminergic neurons in the unilateral striatum was induced). The injection was conducted at a rate of 1 μL/minute using a Hamilton syringe at the following coordinates: AP: −0.9 mm; ML: −1.9 mm; DV: −2.2 mm with respect to bregma, and a final dose of 15 μg was administered. The needle was left standing for 5 minutes after the injection was finished, and was slowly withdrawn.
The respective NMRI mouse was allowed to habituate to the ambient environment for 10 minutes before the apomorphine-induced rotation test was performed. Apomorphine was then injected intraperitoneally into the respective NMRI mouse at a dose of 0.5 mg/kg. The respective NMRI mouse was placed in a glass bowl with a diameter of 20 cm and was attached to an automatic rotometer (TSE, Bad Homburg, Germany) via a specially designed harness. Each circular movement exceeding 30° was recorded. The contralateral movements (toward the nonlesioned side) and ipsilateral movements (toward the lesioned side) of the NMRI mice were counted during a period of 60 minutes. The net rotation was calculated according to the following formula:
where A=net rotation • B=the total number of ipsilateral movements during the period of 60 minutes • C=the total number of contralateral movements during the period of 60 minutes 4. Determination of TH (Tyrosine Hydroxylase) Expression Level and iNOS (Inducible Nitric Oxide Synthase) Expression Level: […]
6-OHDA was injected into NMRI mice according to the method as described in section 2 of General procedures. Product 1 or product 2 was administered intraperitoneally to the respective NMRI mouse at a dose of 5 mg/kg, 1 mg/kg, 0.5 mg/kg, 0.1 mg/kg, or 0.05 mg/kg for 14 consecutive days, starting on Day 7 after the 6-OHDA injection. NMRI mice into which a vehicle (saline containing 0.02% ascorbic acid) was injected (generally according to the method as described in section 2 of General Procedures, except that 6-OHDA was not injected), and which were not treated with product 1 or product 2 after the injection of the vehicle, served as a sham operated control. NMRI mice into which 6-OHDA was injected and which were not treated with product 1 or product 2 after the 6-OHDA injection served as a pathological control. The rotational behavior of the NMRI mice was evaluated using the apomorphine-induced rotation test as described in section 3 of General Procedures on Days 7, 14, and 21 after the 6-OHDA injection.

[4] = tested on: TH (Tyrosine Hydroxylase); assay: TH expression level (TH immunohistochemistry) in 6-OHDA mouse model of PD; type: in vivo, NMRI mice; conditions: i.p. 14 consecutive days starting Day 7, Day 21 after 6-OHDA, 16
Procedure: The respective NMRI mouse was deeply anaesthetized with thiopental (50 mg/kg, intraperitoneally). The respective NMRI mouse was perfused transcardially with a heparin solution (0.05% heparin in 0.1 M PBS), and was subsequently perfused with 100 mL of ice-cold fixative (4% paraformaldehyde in 0.1 M PBS). The brain of the respective NMRI mouse was removed and was postfixed in the same ice-cold fixative for 12 hours, followed by dehydration in 30% sucrose in 0.1 M PBS. The brain was frozen and was subjected to tissue slicing. Serial coronal sections (a thickness of 20 μm) were cut on a freezing microtome and were placed in PBS. The sections were later processed for free-floating TH or iNOS immunohistochemistry.
The sections were rinsed three times with PBS (30 minutes for each time), were treated with 3% H2O2/10% methanol in PBS for 30 minutes for quenching the endogenous peroxidase activity, and were rinsed three times with PBS. After preincubation with 0.5% normal goat serum (NGS)/0.2% Triton in PBS, the sections were incubated with a primary antibody (anti-TH antibody or anti-iNOS antibody, 1:5000, Novus Biologicals, Inc., Littleton, Colo., USA) in 0.5% NGS/PBS at 4° C. for 16-18 hours. After being rinsed three times with PBS, the sections were incubated with a biotinylated goat anti-rabbit IgG (1:200) in PBS for 1 hour. Subsequently, the sections were rinsed three times with PBS and were stained with 0.05% diaminobenzidine/0.03% H2O2 in PBS for 5 minutes. The respective section was placed on a gelatin-coated slide, dehydrated through ascending concentrations of alcohol, and covered with a slipcover for observation under a light microscope.
The obtained data were subjected to the statistical analysis as described in section 5 of General Procedures. TH expression level in the striatum was determined according to the method as described in section 4 of General Procedures.
TH expression level in the striatum and the substantia nigra (SN), and iNOS expression level in the striatum were determined according to the method as described in section 4 of General Procedures on Day 21 after the injection of 6-OHDA or the vehicle.
In addition, the optical density regarding the lesioned and unlesioned sites in the striatum and SN of the NMRI mice (e.g., the sham operated control, the pathological control, and the NMRI mice treated with product 1) was determined from the obtained photomicrographs illustrating TH expression level via ImageJ software (National Institutes of Health). The relative optical density was calculated using the following formula:
where J=relative optical density • K=optical density of the lesioned site • L=optical density of the unlesioned site

[5] = tested on: excitotoxicity induced by excitatory amino acids; conditions: Lin Yi-Ruu et al. (2006); cited from earlier work
inflammatory pain = conditions: Lin Yi-Ruu et al. (2007); cited from earlier work

SMILES	prevention of cell death (relative cell viability) after exposure to CHP [1]	prevention of cell death (relative cell viability) after exposure to TBHP [1]	concentration dependence of alleviation of MPP+ cytotoxicity [2]	other results
C#CCc1ccc(O)c(-c2ccc(O)c(CC=C)c2)c1 [product 5, 3′-Allyl-5-prop-2-ynyl-biphenyl-2,4′-diol]	significantly prevented cell death	significantly prevented cell death	alleviated the cytotoxicity of MPP^+ in a concentration-dependent manner	–
C=CCc1cc(-c2ccc(O)c(CC=C)c2)ccc1O [compound 55, 3,3′-diallyl-biphenyl-4,4′-diol]	significantly prevented cell death	significantly prevented cell death	–	–
C=CCc1cc(-c2cc(CCC)ccc2O)ccc1O [product 2, 3′-Allyl-5-propyl-biphenyl-2,4′-diol]	significantly prevented cell death	significantly prevented cell death	alleviated the cytotoxicity of MPP^+ in a concentration-dependent manner	rank among the tested biphenolic compounds in preventing cell death, CHP ([1]; 10 μM, CHP 300 μM 3 hours): the most effective in preventing cell death among them; rank among the tested biphenolic compounds in preventing cell death, TBHP ([1]; 10 μM, TBHP 300 μM 3 hours): the most effective in preventing cell death among them; unilateral rotations (apomorphine-induced), subchronic post-treatment, 0.1 mg/kg ([3]; 0.1 mg/kg i.p., 14 consecutive days starting Day 7 after 6-OHDA, FIG. 13): significantly inhibited unilateral rotations; unilateral rotations (apomorphine-induced), subchronic post-treatment, 0.5 mg/kg ([3]; 0.5 mg/kg i.p., 14 consecutive days starting Day 7 after 6-OHDA, FIG. 13): significantly inhibited unilateral rotations; unilateral rotations (apomorphine-induced), subchronic post-treatment, 1 mg/kg ([3]; 1 mg/kg i.p., 14 consecutive days starting Day 7 after 6-OHDA, FIG. 13): significantly inhibited unilateral rotations; restoring activity against neurotoxin-induced motor dysfunction compared with product 1 ([3]; subchronic post-treatment, 14 days starting Day 7 after 6-OHDA): more potent restoring activity; loss of TH-ir fibers in the striatum, subchronic post-treatment ([4]; FIGS. 14, 15(A)): significantly alleviated the loss of TH-ir fibers; loss of TH-ir fibers in the substantia nigra (SN), subchronic post-treatment ([4]; FIGS. 14, 15(B)): significantly alleviated the loss of TH-ir fibers
C=CCc1ccc(O)c(-c2ccc(O)c(CCC)c2)c1 [product 4, 5-Allyl-3′-propyl-biphenyl-2,4′-diol]	significantly prevented cell death	significantly prevented cell death	alleviated the cytotoxicity of MPP^+ in a concentration-dependent manner	–
C=CCc1cc(-c2cccc(O)c2CC=C)ccc1O [product 7, 2,3′-Diallyl-biphenyl-3,4′-diol]	significantly prevented cell death	significantly prevented cell death	alleviated the cytotoxicity of MPP^+ in a concentration-dependent manner	–
CCCc1ccc(O)c(-c2ccc(O)c(CCC)c2)c1 [product 3, 5,3′-Dipropyl-biphenyl-2,4′-diol]	significantly prevented cell death	significantly prevented cell death	alleviated the cytotoxicity of MPP^+ in a concentration-dependent manner	–
C=CCc1ccc(O)c(-c2cc(CC=C)ccc2O)c1 [magnolol, reference compound]	–	–	–	neuroprotective effects via anti-oxidative abilities and antagonist actions against excitotoxicity [5]: able to exert neuroprotective effects; alleviation of inflammatory pain in an animal model (inflammatory pain): effective in alleviating inflammatory pain
